The source of these data is PubChem BioAssay (NCI).

Some test systems named below: OVCAR-8 ovarian; PC-3 prostate; MDA-N; ACHN renal; HT29 colon; CAKI-1 renal; HCC-2998 colon; SNB-75 CNS; SN12C renal; CCRF-CEM leukemia; SNB-19 CNS; NCI-H226 lung; SR leukemia; SK-MEL-2 melanoma; A498 renal; MDA-MB-435; K-562 leukemia; NCI-H23 lung; A549 NSCLC; HS 578T breast.
Assay in all cases: NCI anticancer screen, dose series, 48 h

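48-hour exposure; five concentrations; linearly interpolated endpoints. TGI: concentration producing complete growth inhibition.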

As to `Cc1cn(C(C)OCCN2C(=O)c3ccccc3C2=O)c(=O)[nH]c1=O` (stereo not drawn), the TGI in the assay on OVCAR-8 ovarian, in the assay on PC-3 prostate, with MDA-N, in the assay on ACHN renal, in the assay with HT29 colon and with CAKI-1 renal was over 100 µM throughout. In addition, the TGI in the assay on HCC-2998 colon, in the assay with SNB-75 CNS, in the assay with SN12C renal, in the assay on CCRF-CEM leukemia, with SNB-19 CNS and in the assay on NCI-H226 lung was over 100 µM throughout. Also, the TGI with SR leukemia, in the assay on SK-MEL-2 melanoma, with A498 renal, in the assay on MDA-MB-435, in the assay with K-562 leukemia and in the assay on NCI-H23 lung was over 100 µM each time. Moreover, the TGI in the assay on A549 NSCLC was over 100 µM.
On to `CN(C)CCn1c(=O)c2ccc(NCCCN(C)CCCNc3ccc4c(=O)n(CCN(C)C)c(=O)n5c6ccc([N+](=O)[O-])cc6c(=O)c3c45)c3c(=O)c4cc([N+](=O)[O-])ccc4n(c1=O)c23`, for which the TGI with OVCAR-8 ovarian was 0.431 µM; with PC-3 prostate, 0.293 µM; in the assay with MDA-N, 0.22 µM; with ACHN renal it was 1.21 µM; with HT29 colon it was 0.726 µM; with CAKI-1 renal, 1.16 µM. In addition, the TGI in the assay on HCC-2998 colon worked out at 0.0921 µM; in the assay on SNB-75 CNS it was 0.195 µM; in the assay on SN12C renal, 0.165 µM; in the assay on SNB-19 CNS, 0.193 µM; in the assay with A498 renal, 0.398 µM; in the assay with MDA-MB-435 it was 0.097 µM. The TGI worked out at 0.171 µM in the assay with NCI-H23 lung and 0.308 µM in the assay with A549 NSCLC.
With `Nc1c(C(=O)c2ccc(Cl)cc2)[nH]c(NCc2ccccc2)c1C(=S)Nc1ccccc1`, the TGI was determined as 3.37 µM in the assay with OVCAR-8 ovarian; 18.4 µM in the assay on PC-3 prostate; 3.32 µM in the assay on MDA-N; 4.71 µM with ACHN renal; 3.7 µM in the assay with HT29 colon; 18.6 µM in the assay on CAKI-1 renal. For the same compound, the TGI in the assay with HCC-2998 colon worked out at 1.98 µM; in the assay on SNB-75 CNS it was 3.33 µM; in the assay on SN12C renal it was 17 µM; in the assay with CCRF-CEM leukemia, 5.54 µM; with SNB-19 CNS, 15.1 µM; in the assay on NCI-H226 lung, 27.2 µM. Also, the TGI worked out at 3.58 µM with SK-MEL-2 melanoma; 23 µM in the assay on A498 renal; 3.14 µM with MDA-MB-435; 4.04 µM in the assay on K-562 leukemia; 5.95 µM in the assay on NCI-H23 lung; 4.87 µM in the assay on A549 NSCLC.
Regarding `O=C1C=CC(=O)c2c(O)c(NCCc3ccc(O)cc3)c(Cl)c(O)c21`, the TGI in the assay with OVCAR-8 ovarian, with PC-3 prostate, with MDA-N, with ACHN renal, in the assay with HT29 colon and in the assay with CAKI-1 renal was over 10 µM in each case. The TGI with HCC-2998 colon, with SNB-75 CNS, with SN12C renal, with CCRF-CEM leukemia, in the assay with SNB-19 CNS and in the assay with NCI-H226 lung was over 10 µM in each case. Further, the TGI in the assay with SK-MEL-2 melanoma, in the assay with MDA-MB-435, with K-562 leukemia, in the assay with NCI-H23 lung and in the assay on A549 NSCLC was over 10 µM throughout.
On to `N#Cc1cc2c(cc1Cl)Sc1nccn1S2(=O)=O`, for which the TGI worked out at 8.9 µM in the assay with OVCAR-8 ovarian; 8.93 µM in the assay on PC-3 prostate; 4.64 µM with ACHN renal; 3.91 µM in the assay on HT29 colon; 3.6 µM in the assay with CAKI-1 renal; 20.4 µM in the assay on SNB-75 CNS. For the same compound, the TGI in the assay with SN12C renal was 20.8 µM; in the assay on SNB-19 CNS it was 24.6 µM; with NCI-H226 lung, 18 µM; in the assay with SR leukemia, 3.54 µM; in the assay on SK-MEL-2 melanoma, 12.8 µM; in the assay on A498 renal, 33 µM. The TGI in the assay on MDA-MB-435 was 17.5 µM; in the assay on K-562 leukemia it was 17.2 µM; with NCI-H23 lung it was 3.35 µM; with A549 NSCLC, 28.7 µM; in the assay with HS 578T breast it was 8.37 µM.
Regarding `CC1(C)OCC2OC3([C@H]4OC(C)(C)O[C@@H]4CO)OC(C)(C)OC3C2O1` (stereo partly drawn), the TGI in the assay on OVCAR-8 ovarian, in the assay with PC-3 prostate, in the assay on MDA-N, in the assay with ACHN renal, with HT29 colon and in the assay with CAKI-1 renal was over 100 µM each time. Besides, the TGI in the assay on HCC-2998 colon, in the assay on SNB-75 CNS, with SN12C renal, in the assay with CCRF-CEM leukemia, in the assay on SNB-19 CNS and in the assay with NCI-H226 lung was over 100 µM in each case. Besides, the TGI in the assay on SR leukemia, in the assay on SK-MEL-2 melanoma, in the assay on A498 renal, in the assay with MDA-MB-435, with K-562 leukemia and in the assay on NCI-H23 lung was over 100 µM in each case. In addition, the TGI with A549 NSCLC is over 100 µM.
Turning to `COc1ccc2c(c1)CC1=C(O2)c2ccc(OC)cc2OC1`, the TGI in the assay on OVCAR-8 ovarian stood at 78.2 µM; with PC-3 prostate, 57 µM; in the assay with MDA-N, 38.4 µM; in the assay on ACHN renal, 36.5 µM; in the assay with HT29 colon, 72.9 µM; in the assay on CAKI-1 renal, 37.1 µM. Moreover, the TGI with HCC-2998 colon was over 100 µM; in the assay on SNB-75 CNS, 66.3 µM; with SN12C renal it was 44.3 µM; with CCRF-CEM leukemia, over 100 µM; in the assay on NCI-H226 lung it was over 100 µM; with SR leukemia, over 100 µM. The TGI is 81.6 µM with SK-MEL-2 melanoma; over 100 µM with A498 renal; 47.5 µM in the assay on MDA-MB-435; over 100 µM with K-562 leukemia; over 100 µM with NCI-H23 lung; over 100 µM in the assay on A549 NSCLC.
For the compound `CN(C)S(=O)(=O)Nc1nnc(S(N)(=O)=O)s1`, the TGI in the assay on PC-3 prostate, in the assay with ACHN renal, with HT29 colon, with CAKI-1 renal, in the assay on HCC-2998 colon and in the assay on SNB-75 CNS was over 100 µM throughout. The TGI in the assay with SNB-19 CNS, with NCI-H226 lung, with SR leukemia, with SK-MEL-2 melanoma, in the assay with A498 renal and in the assay on MDA-MB-435 was over 100 µM in each case. Moreover, the TGI in the assay with K-562 leukemia, with NCI-H23 lung, with A549 NSCLC and in the assay on HS 578T breast was over 100 µM each time.
